Read-outs that look alike come from different tables or passages of the source.
What was measured:
C3aR [1] = target: T1, C3aR (Homo sapiens, UniProt Q16581); test: Desensitization experiments (Ca^2+ efflux after hC3a desensitization); assay type: cell-based; details: hC3a 3 μM first; second addition of 1 μM compound; HMDM
T1 construct: peripheral blood mononuclear cells were isolated from buffy coat (obtained from Australian Red Cross Blood Service, Kelvin Grove); endogenous in cells; host or cells: primary human monocyte-derived macrophages (HMDM) differentiated from CD14+ monocytes of donor buffy coat
T1 sequence (Q16581 1-482): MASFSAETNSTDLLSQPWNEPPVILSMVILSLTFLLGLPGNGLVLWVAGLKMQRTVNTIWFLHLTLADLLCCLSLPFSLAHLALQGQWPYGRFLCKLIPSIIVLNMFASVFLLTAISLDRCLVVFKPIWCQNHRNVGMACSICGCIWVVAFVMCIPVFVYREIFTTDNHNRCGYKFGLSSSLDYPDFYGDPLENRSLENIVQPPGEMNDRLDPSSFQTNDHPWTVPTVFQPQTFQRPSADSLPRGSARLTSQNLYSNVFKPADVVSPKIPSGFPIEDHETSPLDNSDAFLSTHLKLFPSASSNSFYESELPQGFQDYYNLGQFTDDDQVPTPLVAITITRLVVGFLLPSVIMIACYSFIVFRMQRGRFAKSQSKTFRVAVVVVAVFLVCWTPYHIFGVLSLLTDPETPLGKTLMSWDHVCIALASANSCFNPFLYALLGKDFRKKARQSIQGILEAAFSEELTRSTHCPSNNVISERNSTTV
Method: Desensitization experiments were used to measure the selectivity of various ligands for C3aR, since this can help to clarify whether the non-peptidic ligands bind selectively to C3aR over other GPCRs that signal through intracellular calcium release.
The hC3a (3 μM) was administered to human monocyte derived macrophage cells, which produces an efflux of intracellular Ca^2+ that dissipates after 4-5 mins (FIGS. 4A and 4B). A second addition of 3 μM hC3a after 5 mins has no effect, due to desensitization of the receptor through either receptor (C3a receptor) phosphorylation or receptor internalization from the cell surface.

C3aR [2] = target: T1, C3aR; test: Calcium mobilization assay in HMDM (agonist/antagonist activity); assay type: cell-based; details: for IC50: Table 13, calcium release from HMDM, read-out: Antagonist Activity IC50
Method in brief: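 Human monocyte-derived macrophages, 5×10^4 cells/well, loaded 1 h at 37 °C with 4 μM Fluo-3 in HBSS/HEPES/probenecid buffer, pH 7.4. Agonist mode: calcium release read 300 s; antagonist mode: 900 s compound preincubation then agonist, read 300 s (ex 485/em 520 nm); compared with hC3a.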

C3a receptor (C3aR) = target: T2, C3a receptor (C3aR) (Homo sapiens, UniProt Q16581); test: Competitive binding with [^125I]-C3a in HMDM; details: HMDM
T2 construct: peripheral blood mononuclear cells were isolated from buffy coat (obtained from Australian Red Cross Blood Service, Kelvin Grove); endogenous in cells; host or cells: primary human monocyte-derived macrophages (HMDM) differentiated from CD14+ monocytes of donor buffy coat
T2 sequence (Q16581 1-482): T1 sequence (Q16581 1-482)
Method in brief: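 IC50 values are geometric means, with −log IC50 computed per experiment and given as arithmetic mean ± SE. Cells were CD14+ monocytes from buffy-coat PBMC, differentiated to macrophages and used on day 7. Unbound label was removed by GF/B filtration with 3 cold washes in 50 mM Tris-HCl pH 7.4.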

[3] = Table 9, Ca^2+ mobilization, HMDM, read-out: pEC50 ± SEM (converted)
[4] = Table 11, Ca^2+ mobilisation, HMDM, read-out: Apparent Antagonist Activity EC50
[5] = quoted in text of Example 98, read-out: EC50
[6] = Table 6, competitive binding with [^125I]-C3a, read-out: IC50 (converted)
[7] = Table 6, competitive binding with [^125I]-C3a, read-out: pIC50 ± SEM (converted)
[8] = Table 11, [^125I]-C3a, read-out: Receptor Binding Affinity IC50
[9] = Table 11, [^125I]-C3a, read-out: Receptor Binding Affinity pIC50 ± SE (converted)
[10] = Table 9, Ca^2+ mobilization, HMDM
[11] = Table 6, competitive binding with [^125I]-C3a
[12] = Table 9, Ca^2+ mobilization, HMDM, read-out: EC50

IC50 (C3a receptor (C3aR); [6]) [nM]	EC50 (C3aR [2]; [12]) [nM]	IC50 (C3aR [2]) [nM]	Compound	Ca^2+ efflux on addition after first desensitization with hC3a (selectivity for C3aR over other GPCRs) (C3aR [1])	further results
20	–	–	CC(C)C[C@H](NC(=O)OC(C)(C)C)c1nc(C(=O)NC(CCCNC(=N)N)C(=O)O)co1 (stereo partly drawn) [Compound 1, Boc-leucine oxazole-arginine-OH]	did not produce calcium efflux	EC50 (C3aR [2]; [3]): 19.1 nM; EC50 (C3aR [2]; [4]): 19 nM; EC50 (C3aR [2]; [5]): 19 nM; IC50 (C3a receptor (C3aR); [7]): 19.5 nM; IC50 (C3a receptor (C3aR); [8]): 20 nM; IC50 (C3a receptor (C3aR); [9]): 19.5 nM
30	–	–	CC[C@H](C)[C@H](NC(=O)OC(C)(C)C)c1nc(C(=O)N[C@@H](CCCNC(=N)N)C(=O)O)co1 [Compound 2]	did not produce calcium efflux	pEC50 ± SEM (C3aR [2]; [10]): 7.57 ± 0.11; EC50 (C3aR [2]; [5]): 27 nM; pIC50 ± SEM (C3a receptor (C3aR); [11]): 7.53 ± 0.10
123	–	–	CC[C@H](C)[C@H](NC(=O)c1nccc2ccccc12)c1nc(C(=O)N[C@@H](CCCNC(=N)N)C(=O)O)co1 [Compound 10, Isoquinoline-1-Isoleucine-Oxazole-Arginine-OH]	did not produce calcium efflux	EC50 (C3aR [2]; [3]): 40.7 nM
155	–	–	CC[C@H](C)[C@H](NC(=O)CCC(=O)c1ccc(-c2ccccc2)cc1)c1nc(C(=O)N[C@@H](CCCNC(=N)N)C(=O)O)co1 [Compound 16, 4-(biphenyl-4-yl)-4-oxobutanoic acid-Isoleucine-Oxazole-Arginine-OH]	did not produce calcium efflux	pEC50 ± SEM (C3aR [2]; [10]): 8.12 ± 0.21; EC50 (C3aR [2]; [5]): 8 nM; pIC50 ± SEM (C3a receptor (C3aR); [11]): 6.81 ± 0.07
55	54	–	CC[C@H](C)[C@H](NC(=O)c1ccccc1Oc1ccccc1)c1nc(C(=O)N[C@@H](CCCNC(=N)N)C(=O)O)co1 [Compound 18, 2-phenoxy benzoic acid-isoleucine-oxazole-arginine-OH]	caused a second efflux of intracellular Ca^2+	pEC50 ± SEM (C3aR [2]; [10]): 7.26 ± 0.08; pIC50 ± SEM (C3a receptor (C3aR); [11]): 7.26 ± 0.09
–	45	–	CC[C@H](C)[C@H](NC(=O)OC(C)(C)C)c1nc(C(=O)N[C@@H](CCCNC(=N)N)C(=O)O)c(C)o1 [Compound 25, Boc-isoleucine-5-methyl-oxazole-arginine-OH]	caused a second efflux of intracellular Ca^2+	EC50 (C3aR [2]; [4]): 45 nM; EC50 (C3aR [2]; Table 11, Ca^2+ mobilisation, HMDM, read-out: Apparent Antagonist Activity pEC50 ± SE (converted)): 39.8 nM; IC50 (C3a receptor (C3aR); [7]): 13.8 nM; IC50 (C3a receptor (C3aR); [8]): 15 nM; IC50 (C3a receptor (C3aR); [9]): 13.8 nM
375	–	200	Cc1nc([C@H](CC(C)C)NC(=O)OC(C)(C)C)sc1C(=O)N[C@@H](CCCNC(=N)N)C(=O)O [Compound 82, Boc-Leucine-thiazole-Arginine-OH]	–	–
7.5	–	1300	CC(C)C[C@H](NC(=O)OC(C)(C)C)c1nc(C(=O)N[C@@H](CCCNC(=N)N)C(=O)NS(=O)(=O)c2ccccc2)co1 [Compound 92, tert-butyl ((S)-1-(4-(((S)-5-guanidino-1-oxo-1-(phenylsulfonamido)pentan-2-yl)carbamoyl)oxazol-2-yl)-3-methylbutyl)carbamate]	–	–
30	–	2000	CC(C)C[C@H](NC(=O)OC(C)(C)C)c1nc(C(=O)N[C@@H](CCCNC(=N)N)C(=O)NS(C)(=O)=O)co1 [Compound 93, tert-butyl ((S)-1-(4-(((S)-5-guanidino-1-(methylsulfonamido)-1-oxopentan-2-yl)carbamoyl)oxazol-2-yl)-3-methylbutyl)carbamate]	–	–
35	–	300	N=C(N)NCCC[C@H](NC(=O)c1ccc(C(c2ccccc2)c2ccccc2)s1)C(=O)NS(=O)(=O)c1ccccc1 [Compound 94, (S)-5-benzhydryl-N-(5-guanidino-1-oxo-1-(phenylsulfonamido)pentan-2-yl)thiophene-2-carboxamide]	–	–
853	–	900	N#CN=C(N)NCCC[C@H](NC(=O)c1ccc(C(c2ccccc2)c2ccccc2)s1)C(=O)O [Compound 95, (S)-2-(5-benzhydrylthiophene-2-carboxamido)-5-(2-cyanoguanidino)pentanoic acid]	–	–
888	–	2000	N#CN=C(N)NCCC[C@H](NC(=O)c1ccc(C(c2ccccc2)c2ccccc2)s1)C(=O)NS(=O)(=O)c1ccccc1 [Compound 96, (S)-5-benzhydryl-N-(5-(2-cyanoguanidino)-1-oxo-1-(phenylsulfonamido)pentan-2-yl)thiophene-2-carboxamide]	–	–
31	40	–	Cc1nc(C(c2ccccc2)c2ccccc2)n(C)c1C(=O)N[C@@H](CCCNC(=N)N)C(=O)O [Compound 98, 2-Benzhydryl-1,4-Dimethyl imidazole-5-carboxyl-Arginine]	–	–

Compound	IC50 (C3a receptor (C3aR); [6]) [nM]	EC50 (C3aR [2]; [12]) [nM]	IC50 (C3aR [2]) [nM]	Ca^2+ efflux on addition after first desensitization with hC3a (selectivity for C3aR over other GPCRs) (C3aR [1])	further results
CC(C)C[C@H](NC(=O)OC(C)(C)C)c1nc(C(=O)N[C@@H](CCCN/C(N)=N\C#N)C(=O)O)co1 [Compound 90, (S)-2-(2-((S)-1-((tert-butoxycarbonyl)amino)-3-methylbutyl)oxazole-4-carboxamido)-5-((Z)-2-cyanoguanidino)pentanoic acid]	41	250	–	–	–
CC(C)C[C@H](NC(=O)OC(C)(C)C)c1nc(C(=O)N[C@@H](CCONC(=N)N)C(=O)O)co1 [Compound 91, (S)-2-(2-((S)-1-((tert-butoxycarbonyl)amino)-3-methylbutyl)oxazole-4-carboxamido)-4-(guanidinooxy)butanoic acid]	93	370	–	–	–

From patent publication US9586914B2, “Modulators of C3a receptors” (THE UNIVERSITY OF QUEENSLAND, priority 2011, dated 2017)
